Marks after values point to notes of the source that are not given here.
Experiments:
[1] = test system: thymic CD3+, CD4+, CD8+ and TNF-α+ cells; test: Immunohistochemistry of thymus (cortex and medulla) in CPA-treated mice; type: in vivo, ICR mice; settings: for numbers of thymic cortex CD3+ cells, change compared to CPA control / numbers of thymic cortex CD4+ cells, change compared to CPA control / numbers of thymic cortex CD8+ cells, change compared to CPA control / numbers of thymic medulla CD3+ cells, change compared to CPA control / numbers of thymic medulla CD4+ cells, change compared to CPA control / numbers of thymic medulla CD8+ cells, change compared to CPA control / thymic cortex TNF-α+ cells, change compared to CPA control / thymic medulla TNF-α+ cells, change compared to CPA control: LPC 1, DW286 0.5, Mix 0.75 mg/kg; for CD3+ cells, Thymus: Cortex (IHC-Histomorphometry) / CD4+ cells, Thymus: Cortex (IHC-Histomorphometry) / CD8+ cells, Thymus: Cortex (IHC-Histomorphometry) / TNF-α+ cells, Thymus: Cortex (IHC-Histomorphometry) / CD3+ cells, Thymus: Medulla (IHC-Histomorphometry) / CD4+ cells, Thymus: Medulla (IHC-Histomorphometry) / CD8+ cells, Thymus: Medulla (IHC-Histomorphometry) / TNF-α+ cells, Thymus: Medulla (IHC-Histomorphometry): CPA-treated mice, Mean ± S.D., n = 9
Procedure: (§1) After deparraffinized, CD3 epitope retrievals were conducted in 10 mM Tris-1 mM EDTA Buffer (pH 9.0), CD4 and CD8 in 1 mM EDTA Buffer (pH 8.0), and TNF-α in 10 mM Citrate Buffer (pH 6.0) as previous methods. Primary anti-antibodies used in the invention were as following table.
(§2) The water bath with a staining dish, containing a buffer, was preheated until the temperature reached 95-100. The staining dish was placed at room temperature and the slides were cooled for 20 minutes. After epitope retrivals, sections were immunostained as following steps
(§3) First, the sections were incubated with methanol and 0.3% H2O2 for 30 min to block endogenous peroxidase activity at room temperature, and then rinsed three times in 0.01M phosphate buffered saline (PBS; pH 7.2) for 3 times. Then, the sections were incubated with the normal horse serum blocking solution (Vector Lab. Inc., CA, USA., dilution 1:100) for 1 hr at room temperature in a humidity chamber, to block non-specific binding of immunoglobulin, and then rinsed three times in 0.01M PBS. The sections were incubated with four types of primary antisera for 12 hrs at 4 in a humidity chamber, and then rinsed three times in 0.01M PBS. The sections were incubated with universal biotinylated secondary antibody for 1 hr at room temperature in a humidity chamber, and then rinsed three times in 0.01M PBS. The sections were incubated with ABC reagents (Vectastain Elite ABC Kit, Vector Lab. Inc., CA, USA. Dilution 1:50) for 1 hr at room temperature in a humidity chamber, and then rinsed three times in 0.01M PBS. The sections were incubated in the peroxidase substrate kit (Vector Lab. Inc., CA) for 30 seconds at room temperature, and then rinsed three times in 0.01M PBS. The sections were counterstained with the Mayer's hematoxylin solution, and then rinsed in running tap water for 30 minutes. The sections were dehydrated through 95% ethanol for 2 min and 100% ethanol for […], and then rinsed in xylene for 2 hrs. After that, the sections were observed using a cover slip with permanent mounting medium under the light microscope (Zeiss, Germany).
(§4) Histomorphometry—Among 1000 splenic or thymic cells, the numbers (N) of immunoreactive cells (CD3+, CD4+, CD8+, and TNF-α+) were observed as N/1000 splenocytes or thymocytes using automated image analysis. In thymus, the counts were conducted in the both cortex and medulla separately.

[2] = test system: bone marrow polychromatic erythrocytes; test: Bone marrow MNPCE and PCE/(PCE+NCE) in CPA-treated mice; settings: LPC 1, DW286 0.5, Mix 0.75 mg/kg; for NCE / PCE / PCE/(NCE + PCE): among 500 erythrocytes; for % MNPCE: among 1000 PCEs
Procedure: In Intact control animals, equal volume of saline was only dosed instead of CPA with same methods.
In brief, bone marrow cells were collected from aforementioned femur in 3 ml of inactivated fetal bovine serum (GIBCO BRL, USA), centrifuged, and smeared on slide. Preparations were dried, and fixed by submerging in absolute methanol (for 10˜20 min). Fixed slides were stained as follow:
Slides were randomly coded and examined under×1000 magnification by two different experts. Small round or oval shaped bodies, size of which ranging about ⅕ to 1/20 of diameter of PCE, were counted as micronuclei. Attention was given to discriminate micronuclei from artifacts. Results were expressed as the number of MNPCEs in 1000 PCEs. Mean number of MNPCE±S.D. was calculated for each treatment group.
Appropriate doses of candidate materials were dissolved in 5% human serum albumin, and subcutaneously dosed at 10 ml/kg (of body weight), 4 times 12-hr intervals from 6 hrs after CLP or 24 hrs after last CPA-dosing, respectively. In the INTACT, CPA, or CPA-CLP control groups, an equal volume of 5% human serum albumin was dosed by the same procedure.

[3] = test system: splenic CD3+, CD4+, CD8+ and TNF-α+ cells; test: Immunohistochemistry of spleen in CPA-treated mice; type: in vivo, ICR mice; settings: for numbers of splenic CD3+ cells, change compared to CPA control / numbers of splenic CD4+ cells, change compared to CPA control / numbers of splenic CD8+ cells, change compared to CPA control / splenic TNF-α+ cells, change compared to CPA control: LPC 1, DW286 0.5, Mix 0.75 mg/kg; for CD3+ cells, Spleen (IHC-Histomorphometry) / CD4+ cells, Spleen (IHC-Histomorphometry) / CD8+ cells, Spleen (IHC-Histomorphometry) / TNF-α+ cells, Spleen (IHC-Histomorphometry): CPA-treated mice, Mean ± S.D., n = 9
Procedure: as §1, §2, §3, §4

Compound	numbers of thymic cortex CD3+ cells, change compared to CPA control [1] [%]	numbers of thymic cortex CD4+ cells, change compared to CPA control [1] [%]	numbers of thymic cortex CD8+ cells, change compared to CPA control [1] [%]	numbers of thymic medulla CD3+ cells, change compared to CPA control [1] [%]	numbers of thymic medulla CD4+ cells, change compared to CPA control [1] [%]	numbers of thymic medulla CD8+ cells, change compared to CPA control [1] [%]	thymic cortex TNF-α+ cells, change compared to CPA control [1] [%]	thymic medulla TNF-α+ cells, change compared to CPA control [1] [%]	CD3+ cells, Thymus: Cortex (IHC-Histomorphometry) [1]	CD4+ cells, Thymus: Cortex (IHC-Histomorphometry) [1]	CD8+ cells, Thymus: Cortex (IHC-Histomorphometry) [1]	TNF-α+ cells, Thymus: Cortex (IHC-Histomorphometry) [1]	CD3+ cells, Thymus: Medulla (IHC-Histomorphometry) [1]	CD4+ cells, Thymus: Medulla (IHC-Histomorphometry) [1]	CD8+ cells, Thymus: Medulla (IHC-Histomorphometry) [1]	TNF-α+ cells, Thymus: Medulla (IHC-Histomorphometry) [1]	MNPCE numbers, change compared to CPA control [2] [%]	PCE/(PCE+NCE), change compared to CPA control [2] [%]	NCE [2]	PCE [2]	other results
CON=C1CN(c2nc3c(cc2F)c(=O)c(C(=O)O)cn3C2CC2)CC1(C)CN.Cl (stereo not drawn) [DW286aa, 7-[3-(aminomethyl)-4-(methoxyimino)-3-methyltetrahydro-1H-1-pyrrolyl]-1-cyclopropyl-6-fluoro-4-oxo-1,4-dihydro[1,8]naphthyridine-3-carboxylic acid hydrochloric acid salt]	−9.16	21.74	33.33	−33.33	27.27	−22.22	−13.040	0.00	165.33 N/1000 splenocytes or thymocytes	3.11 N/1000 splenocytes or thymocytes	4.00 N/1000 splenocytes or thymocytes	2.22 N/1000 splenocytes or thymocytes	0.22 N/1000 splenocytes or thymocytes	1.78 N/1000 splenocytes or thymocytes	1.56 N/1000 splenocytes or thymocytes	0.00 N/1000 splenocytes or thymocytes	−10.85	−14.79	379.67 ± 17.07	120.33 ± 17.07	PCE/(NCE + PCE) [2]: 0.24 ± 0.03; % MNPCE [2]: 2.56 ± 0.57 %; numbers of splenic CD3+ cells, change compared to CPA control [3]: −14.02%; numbers of splenic CD4+ cells, change compared to CPA control [3]: −10.82%; numbers of splenic CD8+ cells, change compared to CPA control [3]: −10.63%; splenic TNF-α+ cells, change compared to CPA control [3]: −13.840%; CD3+ cells, Spleen (IHC-Histomorphometry) [3]: 55.89 N/1000 splenocytes or thymocytes; CD4+ cells, Spleen (IHC-Histomorphometry) [3]: 41.22 N/1000 splenocytes or thymocytes; CD8+ cells, Spleen (IHC-Histomorphometry) [3]: 45.78 N/1000 splenocytes or thymocytes; TNF-α+ cells, Spleen (IHC-Histomorphometry) [3]: 40.11 N/1000 splenocytes or thymocytes
Lysophosphatidylcholine [LPC]	328.69	408.70	11.11	12466.67	−9.09	−5.56	65.22	133.33	780.22 ± 85.78 N/1000 splenocytes or thymocytes	13.00 ± 2.45*^,# N/1000 splenocytes or thymocytes	3.33 ± 1.22 N/1000 splenocytes or thymocytes	4.22 ± 1.20 N/1000 splenocytes or thymocytes	41.89 ± 10.23*^,# N/1000 splenocytes or thymocytes	2.22 ± 0.97 N/1000 splenocytes or thymocytes	1.89 ± 0.60 N/1000 splenocytes or thymocytes	1.33 ± 1.00 N/1000 splenocytes or thymocytes	−14.34	−12.98	377.11 ± 22.32	122.89 ± 22.32	PCE/(NCE + PCE) [2]: 0.25 ± 0.04; % MNPCE [2]: 2.46 ± 0.75 %; numbers of splenic CD3+ cells, change compared to CPA control [3]: 18.29%; numbers of splenic CD4+ cells, change compared to CPA control [3]: 136.54%; numbers of splenic CD8+ cells, change compared to CPA control [3]: 72.89%; splenic TNF-α+ cells, change compared to CPA control [3]: 36.75%; CD3+ cells, Spleen (IHC-Histomorphometry) [3]: 76.89 ± 6.23*^,## N/1000 splenocytes or thymocytes; CD4+ cells, Spleen (IHC-Histomorphometry) [3]: 109.33 ± 20.77*^,# N/1000 splenocytes or thymocytes; CD8+ cells, Spleen (IHC-Histomorphometry) [3]: 88.56 ± 11.18*^,# N/1000 splenocytes or thymocytes; TNF-α+ cells, Spleen (IHC-Histomorphometry) [3]: 63.67 ± 9.10*^,# N/1000 splenocytes or thymocytes
